The test system of data set [1] is APOE*3Leiden.CETP mice. As to the kind of experiment: Plasma cholesterol, triglycerides and HDL-C in the atherosclerosis study. The class given is in vivo. The following applies: for reduction of average plasma cholesterol compared to control: p < 0.001; for change of HDL-C vs control: at 16 weeks of treatment. Here is the method: Pouwer et al Supplementary material plasma lipids and a minimal effect of treatment of 30%, resulting in 15 animals per group.
Animal experiments were approved by the Institutional Animal Care and Use Committee of The Netherlands Organization for Applied Research under registration number 3557. […]
Biochemical analyses and blood pressure
EDTA plasma samples were collected throughout the study. Plasma cholesterol and triglycerides were determined every 4 weeks using enzymatic kits (Roche/Hitachi) according […]
HDL-C was measured after precipitation as described previously20. The distribution of […]
protein liquid chromatography (FPLC)9. The inflammatory markers SAA, E-selectin and MCP- […]
according to the manufacturer’s instruction. Plasma ALT and AST were determined using a […]
group at 2 and 15 weeks18. […]

Data set [2] has as its system peripheral blood mononuclear cells. As to the kind of experiment: Flow cytometric analysis (FACS) of PBMCs and monocyte subsets. The following applies: for CD11b+Ly6Chigh / CD11b+Ly6Clow / Number of live/single PBMCs per mL blood: after 12 weeks; for change of number of circulating PBMCs vs control: at 12 weeks.
In data set [3] the test system is APOE*3Leiden.CETP mice. As to the kind of experiment: Histological assessment of atherosclerosis (lesion area, number, severity) in the aortic root. Format: in vivo. The following applies: 16 weeks. On the procedure: Significance of differences between the groups was calculated in SPSS 22.0 for Windows. Normally distributed data was tested parametrically using a one-way ANOVA for multiple comparisons with a Dunnett’s post-hoc test. Non-parametric data were compared separately with a Mann-Whitney U test with adjusted rejection criteria using a Bonferroni-Holm correction. Correlations between lesion size (after square root transformation) and cholesterol exposure were calculated with a Pearson’s correlation test. All groups were compared with the control group. Values are presented as means ± SD and p-values < 0.05 were considered statistically significant.
Pouwer et al Supplementary material
Dickinson, Franklin Lakes, New Jersey, USA). […]
Histological assessment of lung morphology and atherosclerosis […]
The caudal lung was cross […]
direction of the aortic arch. […]
valve leaflets and smooth muscle cells instead of collagen-rich tissue, serial cross sections (5 µm thick with intervals of 50 µm) were taken and mounted on AAS-coated slides. These sections were stained with hematoxylin-phloxine-saffron (HPS) for histological analysis. For each mouse, atherosclerosis was measured in 4 subsequent cross sections. Each section consisted of 3 segments. The average total lesion area per cross section was then calculated20
22. For determination of lesion severity the lesions were classified into five categories according to the American Heart Association classification 23: 0) no lesion I) early fatty streak, II) regular fatty streak, III) mild plaque, IV) moderate plaque, and V) severe plaque. The percentage of each lesion type was calculated, where type I-III lesions were classified as mild lesions and type IV-V lesions were classified as severe lesions 20 22. In the aortic root, lesion composition was determined for the severe lesions (type IV -V) as a percentage of lesion area after immunostaining with anti-human alpha-actin (1:400; PROGEN Biotechnik GmbH, Germany) for smooth muscle cells (SMC), and anti -mouse Mac-3 (1:50; BD Pharmingen, the Netherlands) for macrophages followed by Sirius Red staining. After Sirius Red staining for collagen, color intensity was determined in ImageJ and the used threshold was confirmed by evaluation of the sections under polarized light 24. Necrotic area and cholesterol clefts were measured after HPS staining13 20 22. Lesion stability index was calculated as described pre viously13 20. In each segment used for lesion quantification, the number of monocytes adhering to the endothelium were counted after immunostaining with AIA 31240 antibody (1:1000; Accurate Chemical and Scientific, New York, New York, USA) 14 20. […]

Data set [4] concerns APOE*3Leiden.CETP mice. As to the kind of experiment: Blood pressure and heart rate (tail cuff). The class given is in vivo. As to conditions: after 2 and 15 weeks of treatment, all dose groups, vs control. The source says: (§1) Pouwer et al Supplementary material […]
Data set [5] relates to liver. Put plainly: Liver gene expression analysis (RNA sequencing) and pathway analysis. Format: in vivo, APOE*3Leiden.CETP mice. As to conditions: vs control, Figure 7: imatinib 150, nilotinib 30, ponatinib 10 mg/kg. On the procedure: To find early molecular signatures of other clinically relevant processes induced by the anti-CML drugs, gene expression and pathway analysis was performed in the liver as the central organ in lipid metabolism and synthesis of coagulation factors. To identify drug-specific molecular responses and overlap between the various treatments, the total number of differentially expressed genes (DEG) was assessed and a Venn-diagram was constructed comprising all DEG compared to control group. […]
Messenger RNA was isolated from liver of 8 mice per group, using the NEBNext Ultra RNA
sample Prep Kit. After fragmentation of the mRNA, cDNA synthesis was performed. The

The subject of data set [6] is ALT. As to the kind of experiment: Plasma ALT (pooled samples). As to conditions: after 16 weeks.
Data set [7] concerns AST. Put plainly: Plasma AST (pooled samples). The following applies: after 16 weeks.
Data set [8] concerns MCP-1. Put plainly: Plasma MCP-1 ELISA. Format: in vivo, APOE*3Leiden.CETP mice. The following applies: for change of MCP-1 relative to baseline (T = 0 weeks): p < 0.001; for MCP-1: after 16 weeks of treatment.
Excerpt: as §1
The inflammatory markers SAA, E-selectin and MCP-
according to the manufacturer’s instruction. […]

Results on 3 molecules are retold here after article PMC6005845 (Frontiers in Cardiovascular Medicine, 2018).

As for `Cc1cn(-c2cc(NC(=O)c3ccc(C)c(Nc4nccc(-c5cccnc5)n4)c3)cc(C(F)(F)F)c2)cn1` [Nilotinib, nilotinib], the “effect on plasma lipid levels” value in data set [1] (10 and 30 mg/kg QD, 16 week study, vs control) is “no significant effect”. Also, in data set [2] (10 mg/kg), the “CD11b+Ly6Chigh” value is 27.5 ± 4.3 % of monocyte population, the “CD11b+Ly6Clow” value is 61.4 ± 4.8 % of monocyte population and the “Number of live/single PBMCs per mL blood” value is given as 6.5 ± 2.4 *106 /mL. Moreover, in data set [2] (30 mg/kg), the “CD11b+Ly6Chigh” value is listed as 11.4 ± 3.8 % of monocyte population, the “CD11b+Ly6Clow” value is on record as 73.2 ± 4.9 % of monocyte population and the “Number of live/single PBMCs per mL blood” value was 6.4 ± 1.4 *106 /mL. In data set [3] (10 and 30 mg/kg QD), the “effect on atherosclerotic lesion area” value is listed as “not affected”. Further, in data set [4], the “effect on heart rate” value is recorded as “not affected” and the “effect on systolic blood pressure (SBP)” value is “not affected”. In addition, in data set [5], the “gene expression of F5” value is “down-regulation”, the “gene expression of F9” value is recorded as “down-regulation”, the “gene expression of Protein S” value is “down-regulation” and the “gene expression of Serpina1 (PAI-1)” value is recorded as “up-regulated”. The same molecule registered an ALT in data set [6] (10 mg/kg) of 64 U/L. Further, the ALT in data set [6] (30 mg/kg) is 81 U/L. Also, in data set [7] (10 mg/kg), the AST stood at 210 U/L. Further, in data set [7] (30 mg/kg), the AST is recorded as 221 U/L. In addition, the “change of MCP-1 relative to baseline (T = 0 weeks)” value in data set [8] (10 mg/kg QD, 16 weeks) was “+220%”. In data set [8] (10 mg/kg QD), this molecule registered an MCP-1 of 144 ± 82 pg/mL. Besides, the “change of MCP-1 relative to baseline (T = 0 weeks)” value in data set [8] (30 mg/kg QD, 16 weeks) is listed as “+160%”. The molecule further had an MCP-1 in data set [8] (30 mg/kg QD) of 117 ± 60 pg/mL.
As to `Cc1ccc(NC(=O)c2ccc(CN3CCN(C)CC3)cc2)cc1Nc1nccc(-c2cccnc2)n1` [Imatinib, imatinib], the “reduction of average plasma cholesterol compared to control” value in data set [1] (150 mg/kg BID, 16 week study) was 69%. Also, in data set [1] (150 mg/kg BID, 16 week study, p = 0.019), the “reduction of average plasma triglyceride levels compared to control” value is given as 36%. Moreover, in data set [2] (150 mg/kg BID), the “CD11b+Ly6Chigh” value is given as 11.0 ± 3.6 % of monocyte population, the “CD11b+Ly6Clow” value is reported as 69.1 ± 5.9 % of monocyte population and the “Number of live/single PBMCs per mL blood” value is 3.9 ± 1.3 *106 /mL. Also, in data set [2] (150 mg/kg BID, p = 0.006), the “change of number of circulating PBMCs vs control” value is given as −42%. In addition, in data set [3] (150 mg/kg BID, p < 0.001), the “change of total lesion area that consisted of severe (type IV–V) lesions vs control” value is −56% and the “reduction of atherosclerotic lesion area per cross-section vs control” value was 78%. In data set [4], the “effect on heart rate” value is “not affected” and the “effect on systolic blood pressure (SBP)” value is on record as “not affected”. Further, in data set [5], the “gene expression of Protein C” value is given as “up-regulated”, the “gene expression of Protein S” value is reported as “down-regulated”, the “gene expression of Serpina1 (PAI-1)” value was “up-regulated” and the “gene expression of Tpa” value is “down-regulated”. Further, in data set [5], the “gene expression of Upa” value is “down-regulated”. Further, in data set [6] (150 mg/kg BID), the ALT is 31 U/L. In data set [7] (150 mg/kg BID), this molecule had an AST of 147 U/L. In data set [8] (150 mg/kg BID, 16 weeks), the “effect on plasma MCP-1” value is recorded as “None of the inflammatory markers were significantly altered”. This molecule had an MCP-1 in data set [8] (150 mg/kg BID) of 54 ± 44 pg/mL.
For the molecule `Cc1ccc(C(=O)Nc2ccc(CN3CCN(C)CC3)c(C(F)(F)F)c2)cc1C#Cc1cnc2cccnn12` [Ponatinib, ponatinib], the “change of HDL-C vs control” value is on record as −30% in data set [1] (3 mg/kg QD (low dose), p = 0.003) and −25% in data set [1] (10 mg/kg QD (high dose), p = 0.016). The “reduction of average plasma cholesterol compared to control” value in data set [1] (3 mg/kg QD, 16 week study) was determined as 37%; in data set [1] (10 mg/kg QD, 16 week study), 44%. For the same molecule, the “CD11b+Ly6Clow” value was 58.4 ± 2.5 % of monocyte population in data set [2] (3 mg/kg) and 69.1 ± 6.4 % of monocyte population in data set [2] (10 mg/kg). The “Number of live/single PBMCs per mL blood” value in data set [2] (3 mg/kg) is recorded as 7.1 ± 1.7 *106 /mL; in data set [2] (10 mg/kg), 3.8 ± 0.8 *106 /mL. Moreover, in data set [2] (10 mg/kg QD (high-dose), p = 0.003), the “change of number of circulating PBMCs vs control” value is on record as −44%. Besides, the “reduction of atherosclerotic lesion area per cross-section vs control” value is listed as 52% in data set [3] (3 mg/kg QD, p = 0.002) and 48% in data set [3] (10 mg/kg QD, p = 0.006). The “change of lesion severity, mild lesions (type I-III)” value in data set [3] (10 mg/kg QD, p < 0.01 (Figure 4B)) is “+64%”. Besides, the “effect on heart rate” value in data set [4] is “not affected”. Also, in data set [4], the “effect on systolic blood pressure (SBP)” value was “not affected”. Also, the “gene expression of F7” value in data set [5] is given as “increased”. Further, the “gene expression of Klkb1” value in data set [5] is “increased”. The “gene expression of Kng1a” value in data set [5] is “increased”. Moreover, in data set [5], the “gene expression of Tpa” value is reported as “decreased”. Besides, the “gene expression of Upa” value in data set [5] is “decreased”. The ALT in data set [6] (3 mg/kg) is recorded as 44 U/L; in data set [6] (10 mg/kg), 31 U/L. In addition, the AST in data set [7] (3 mg/kg) amounted to 196 U/L; in data set [7] (10 mg/kg), 207 U/L. Also, the values for the MCP-1 in data set [8] (3 mg/kg QD) and in data set [8] (10 mg/kg QD) were 78 ± 29 pg/mL and 92 ± 68 pg/mL, respectively.
